Laboratory results as given in BindingDB's records for doi:10.1016/j.ejmech.2022.114684 (Shanghai Institute of Materia Medica, 2022).
pIC50: −log10 of the molar value.

The compounds below were run against T1, Transcriptional coactivator YAP1 (Homo sapiens, UniProt P46937) (assay: Inhibition of YAP in HEK293T cells incubated for 24 hrs by Promega Dual-Luciferase Reporter Assay).
T1 sequence (P46937 whole entry): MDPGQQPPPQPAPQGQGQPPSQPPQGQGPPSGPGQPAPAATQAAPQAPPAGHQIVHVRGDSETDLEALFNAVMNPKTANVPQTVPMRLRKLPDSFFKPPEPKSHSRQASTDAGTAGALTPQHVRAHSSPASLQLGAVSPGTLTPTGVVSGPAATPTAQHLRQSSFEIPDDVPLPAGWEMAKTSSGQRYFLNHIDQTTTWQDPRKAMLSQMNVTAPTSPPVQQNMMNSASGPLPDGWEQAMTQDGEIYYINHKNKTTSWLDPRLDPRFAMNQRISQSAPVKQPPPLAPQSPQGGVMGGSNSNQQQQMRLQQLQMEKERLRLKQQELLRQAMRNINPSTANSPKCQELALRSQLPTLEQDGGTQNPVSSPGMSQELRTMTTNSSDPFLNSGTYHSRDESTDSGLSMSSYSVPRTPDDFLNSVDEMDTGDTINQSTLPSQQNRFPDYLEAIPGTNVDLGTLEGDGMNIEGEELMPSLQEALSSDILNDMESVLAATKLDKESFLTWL

SMILES	pIC50
CC(C)NC(=O)c1ccc2c(Oc3cccc(Cl)c3)cccc2c1 [5-(3-chlorophenoxy)-N-isopropyl-2-naphthamide]	> 7.00
N#CCNC(=O)c1ccc2c(Oc3ccc(C(F)(F)F)cc3)cccc2c1 [N-(cyanomethyl)-5-(4-(trifluoromethyl)phenoxy)-2-naphthamid]	> 7.00
CS(=O)(=O)NC(=O)c1ccc2c(Oc3ccc(C(F)(F)F)cc3)cccc2c1 [N-(methylsulfonyl)-5-(4-(trifluoromethyl)phenoxy)-2-naphthamide]	> 7.00

What follows are compounds tested against T1, Transcriptional coactivator YAP1 (assay: Inhibition of YAP (unknown origin) incubated for 24 hrs by Promega Dual-Luciferase Reporter Assay).

SMILES	pIC50
CNS(=O)(=O)c1ccc(Nc2ccc(C(F)(F)F)cc2)c(-c2cn(C)cn2)c1	9.00
COC(=O)c1cc(S(N)(=O)=O)ccc1NC1CCCCC1	6.34
CC(NC(=O)c1cc2nc(N(C)C)n(-c3ccc(Br)cc3)c2s1)c1ccccn1 (stereo unspecified)	6.41
